Data as given in patent publication US6376540B1, “Furan nitrone compounds” (Centaur Pharmaceuticals, Inc., priority 1996, dated 2002).

Experiments:
[1] = test system: primary neuronal/astrocyte cultures; test: Protection against Aβ(1-40)-induced neuronal cell loss; type: cell-based, Sprague Dawley rat; conditions: similar manner using Aβ(1-40) instead of Aβ(25-35)
Procedure: Patients with Alzheimer's disease are known to suffer a progressive loss of neuronal cells. See, for example, P. J. Whitehause et al., (1982) Science, 215:1237-1239. […] Sprague Dawley rat hippocampus of 18-day-gestation embryos was excised and then dissociated by trituration to prepare primary neuronal/astrocyte cultures. Cells (3×10^5) were plated on 35 mm poly-D-lysine-coated plates containing Eagle's minimum essential medium supplemented with 10% fetal bovine serum. After 3-5 hours, the original medium was removed and replaced with 1 mL of fresh medium. Cultures were maintained at 37° C. in a 5% CO2/95% air humidified incubator.
To the cells (7 DIV) was added 30 μM of Aβ(25-35) dissolved in dH2O (stored at −20° C.) and 100 μM of the test compound (i.e., a compound of Example 1, 3, 4, 5, 6, 7, 8, 12 or 13 above) in 1% methylcellulose. Controls were also conducted without the test compound. The percentage of morphologically viable neurons was determined counting the number of viable neurons after 96 hours treatment compared to the number of neurons before treatment in the same premarked culture regions (three regions/culture, n=6).
In experiments conducted in a similar manner using Aβ(1-40) instead of Aβ(25-35), the compound prepared in Example 1 above reduced Aβ(1-40)-induced neuronal cell loss by 46% compared to the controls.

female Lewis rats = test: MBP-induced experimental allergic encephalomyelitis (EAE), behavioral score; type: in vivo, rat; conditions: 100 mg/kg po once a day from days 4 to 18
Procedure: Experimental allergic encephalomyelitis (EAE) induced by injection of myelin basic protein (MBP) or MBP peptide fragments is reported to be a useful model for MS. See, for example, D. E. McFarlin et al., “Recurrent Experimental Allergic Encephalomyelitis in the Lewis Rat,” The Journal of Immunology, 113(2): 712-715 (1974).
Acclimated female Lewis rats, (Harlan; 200-250 g) were used in this experiment since this strain of rat is genetically highly susceptible to EAE. In the experiment, 100 mg/kg of N-isopropyl-α-(2-sulfofuran-5-yl)nitrone sodium salt (prepared in Example 1 above) or a vehicle alone (control) was administered po once a day from days 4 to 18. On day 1, the rats received an injection of 100 μg of MBP peptide, from guinea pig brain, plus 500 μg of H37RA Mycobacterium in 0.10 ml complete Freund's adjuvant divided equally between the two hind foot-pads.
The rats were evaluated on a 0-6 scale every day after day 7 until day 18 (effects usually begin day 10 and peak day 15). See E. Heber-Katz, “The Ups and Downs of EAE,” International Reviews Immunology, 9: 277-285 (1992). […] Results are expressed as a behavioral score ranging from 0 to 6.

[2] = Free radical trapping, DCF oxidation, tert-butyl hydroperoxide system; type: biochemical; conditions: 100 μM test compound, 25 μM tert-butyl hydroperoxide, 50 μM DCF in MEM, 37° C., 2 hrs
Procedure: Dichlorofluorescein (DCF) is a compound that fluoresces when oxidized by reactive oxygen species (ROS), such as hydroxyl, peroxyl, or alkoxyl free radicals. Test compounds were evaluated for their ability to scavenge radicals by determining their capacity to prevent the DCF oxidation in a radical generating environment. Two radical generating systems were used: (i) ferrous iron and (ii) tert-butyl hydroperoxide. When ferrous iron is placed in normoxic solution, it autooxidizes to produce ROS in the form of hydroxyl radicals, superoxide anion free radicals, and hydrogen peroxide. Similarly, when tert-butyl hydroperoxide is placed in non-chelated media, trace metals catalyze its oxidation to yield alkoxy, peroxyl, and alkyl free radicals.
In this assay, either 100 μM FeSO4 or 25 μM tert-butyl hydroperoxide were mixed with 50 μM DCF and 100 μM of the test compound in MEM and the mixture was incubated at 37° C. for 2 hrs. The fluorescence wavelengths measured were 485 nm for excitation and 530 nm for emission. In these tests, N-isopropyl-α-(2-sulfofuran-5-yl)nitrone sodium salt (prepared in Example 1 above) reduced fluorescence by 20% in the Fe^+2 assay and by 13% in the tert-butyl hydroperoxide assay. In comparison, a known free radical trap, N-tert-butyl-α-phenylnitrone (PBN) reduced fluorescence by 48% in the Fe^+2 assay and by 9% in the tert-butyl hydroperoxide assay.

synthetic Aβ(1-40) = molecular target: T1, synthetic Aβ(1-40) (Homo sapiens, UniProt P05067); test: Inhibition of Aβ(1-40) beta-pleated sheet formation (ThT fluorescence); type: biochemical; conditions: 10 μM compound, ThT 3 μM, PBS pH 6.0, 12 hours; read-out: inhibition of Aβ(1-40) beta-pleated sheet formation compared to the controls
T1 construct: 3 μL of Aβ(1-40)(3 μg) prepared with dH2O
T1 sequence (P05067 672-711 limits assumed): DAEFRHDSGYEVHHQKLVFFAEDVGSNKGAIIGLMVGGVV
Description: The deposition of amyloid β-peptide (Aβ) is associated with the development of Alzheimer's disease. See, for example, G. G. Glenner et al. (1984) Biochem. Biophys. Res. Commun., 120:885-890; and R. E. Tanzi (1989) Ann. Med., 21:91-94. Accordingly, compounds which effectively disrupt the formation of Aβ(1-40) or Aβ(1-42) beta-pleated sheets are potentially useful for preventing and/or reversing such amyloid deposits. Thioflavin T (ThT) is known to rapidly associate with beta-pleated sheets, particularly the aggregated fibrils of synthetic Aβ(1-40). This association gives rise to a new excitation maximum at 440 nm and to enhanced emission at 490 nm.
The experiments were performed using a CytoFluor II fluorescence plate reader having the following parameters:
Into each well was aliquoted 95 μl of ThT (3 μM) prepared in PBS (pH 6.0), 2 μL of the compound to be tested (10 μM) prepared with 0.05% of methylcellulose in PBS (pH 6.0), and 3 μL of Aβ(1-40)(3 μg) prepared with dH2O (the compounds prepared in Examples 1, 3, 4, 5, 6, 7, 8, 9, 11 and 12 were tested). The fluorescence measurement began when the Aβ(1-40) was added and continued for a total of 12 hours. The percent inhibition of beta-pleated sheet formation was calculated from the relative fluorescence unit difference between aggregation in the presence and in the absence of the test compounds.

## CC(C)[N+]([O-])=Cc1ccc(S(=O)(=O)O)o1 [Example 1, N-Isopropyl-α-(2-sulfofuran-5-yl)nitrone]
[1]
  reduction of Aβ(1-40)-induced neuronal cell loss compared to the controls: 46%
Female Lewis rats
  effect of MBP on behavioral score (0-6 scale): completely counteracted the effect of MBP
[2]
  reduced fluorescence in the tert-butyl hydroperoxide assay: 13%
Synthetic Aβ(1-40)
  inhibition at 10 µM: 15 to 71%
